{
  "source": "patent US20140349340A1",
  "about": "“MBTH-LIKE PROTEINS IN THE PRODUCTION OF SEMI SYNTHETIC ANTIBIOTICS” (DSM SINOCHEM PHARMACEUTICALS NETHERLANDS B.V., priority 2012, published 2014)",
  "type_in_all_cases": "biochemical",
  "key": {"[1]": {"experiment": "PPi release assay, adenylation activity with L-hydroxyphenylglycine", "conditions": "for adenylation activity (absorption 360 nm, PPi release assay) / adenylation activity (PPi release assay): substrate L-hydroxyphenylglycine", "from_the_text": "(§1) These assays use inorganic pyrophosphatases to convert PPi produced during aminoacyl-AMP formation to orthophosphate (Pi). To measure Pi concentrations some of these assays use molybdate/malachite green reagent for colorimetric detection (McQuade et al. 2008) or, as used in the context of the present invention, a shift in absorbance maximum by conversion of 7-methyl-6-thioguanosine (MESG) by purine nucleoside phosphorylase (Ehmann D. E. et al. (Proc. Natl. Acad. Sci. (2000) 97, 2509-2514) or Daniel & Aldrich (Anal. Biochem. (2010) 404, 56-63)).\n(§2) To determine the adenylation activity of the adenylation domains, the Enzchek® pyrophosphate assay kit (Life Technologies) was used as described by Ehmann D. E. et al. (Proc Nat Acad Science (2000) 97, 2509-2514) with small modifications. The reactions were performed 96 wells UV/Vis transparent plates (BD Falcon). The reaction mixture comprises 50 mM HEPES pH 8.0, 10 mM MgCl2, 5 mM ATP, 75 mM DTT, 0.03 U Inorganic Pyrophosphatase (IP), 1 U Purine Nucleoside Phosphorylase (PNP) and 0.2 mM MESG in a volume of 70 μl. Next 20 μl (around 0.5-2 μM final concentration) of purified A(T) domain, with or without co-purification of the MbtH like helper protein was added and the reaction was pre-incubated for 15 minutes at RT to reduce contaminating Pi. Following the pre-incubation, 10 μl of a 10 mM or 1 mM solution of the appropriate amino acid depending on the performed specificity determination was added to initiate the adenylation reaction and the absorbance at 360 nm was measured using a TECAN I Control spectrophotometer. Absorbance measurements were made every 5 to 10 min over a period of up to 240 min. A reaction with addition of 10 μl MilliQ water instead was used to determine and subtract the background absorbance. As substrates the following amino acids were used: D- or L-phenylalanine, D- or L-hydroxyphenylglycine, D- or L-phenylglycine, L-tryptophan, L-valine, L-cysteine, and L-leucine."}, "[2]": {"experiment": "PPi release assay, adenylation activity with D-phenylglycine", "conditions": "for Formed PPi: substrate D-PG 1 mM", "from_the_text": "as §1, §2"}, "[3]": {"experiment": "PPi release assay, adenylation activity with D-hydroxyphenylglycine", "conditions": "for adenylation activity (absorption 360 nm, PPi release assay) / adenylation activity (PPi release assay): substrate D-hydroxyphenylglycine", "from_the_text": "as §1, §2"}, "[4]": {"experiment": "PPi release assay, adenylation activity with D-phenylalanine", "conditions": "substrate D-phenylalanine", "from_the_text": "as §1, §2"}, "[5]": {"experiment": "PPi release assay, adenylation activity with L-phenylalanine", "conditions": "substrate L-phenylalanine", "from_the_text": "as §1, §2"}, "[6]": {"experiment": "PPi release assay, adenylation activity with L-phenylglycine", "conditions": "for Formed PPi: substrate L-PG 1 mM", "from_the_text": "as §1, §2"}, "[7]": {"conditions": "co-purified with MbtH-like protein Tcp13"}, "[8]": {"conditions": "protein alone, without MbtH-like protein"}, "[9]": {"conditions": "co-purified with MbtH-like protein Tcp 13"}, "[10]": {"conditions": "co-purified with MbtH-like protein Tcp 17"}, "[11]": {"conditions": "co-purified with MbtH-like protein VMbtH"}, "[12]": {"conditions": "co-purified with MbtH-like protein CMbtH"}, "[13]": {"conditions": "co-purified with Tcp13, or Tcp17 or VMbtH"}},
  "data": [
    {"substance": "Tcp11_M1_A: purified adenylation domain of Tcp11 module M1 (SEQ ID NO: 7), maltose binding protein fusion, His-tag; Actinoplanes teichomyceticus", "values": [
      {"measurement": "Formed PPi", "setting": "[1]; substrate L-HPG 0.1 mM, co-purified with MbtH-like protein Tcp 13", "result": 0.80, "unit": "mM/min/mM enzyme"},
      {"measurement": "Formed PPi", "setting": "[1]; substrate L-HPG 0.1 mM, co-purified with MbtH-like protein Tcp 17", "result": 0.95, "unit": "mM/min/mM enzyme"},
      {"measurement": "Formed PPi", "setting": "[1]; substrate L-HPG 0.1 mM, co-purified with MbtH-like protein VMbtH", "result": 1.38, "unit": "mM/min/mM enzyme"},
      {"measurement": "Formed PPi", "setting": "[1]; substrate L-HPG 1 mM, co-purified with MbtH-like protein Tcp 13", "result": 1.03, "unit": "mM/min/mM enzyme"},
      {"measurement": "Formed PPi", "setting": "[1]; substrate L-HPG 1 mM, co-purified with MbtH-like protein Tcp 17", "result": 1.04, "unit": "mM/min/mM enzyme"},
      {"measurement": "Formed PPi", "setting": "[1]; substrate L-HPG 1 mM, co-purified with MbtH-like protein VMbtH", "result": 1.54, "unit": "mM/min/mM enzyme"},
      {"measurement": "adenylation activity (absorption 360 nm, PPi release assay)", "setting": "[1]; [7]", "result": "clear adenylation activity"},
      {"measurement": "adenylation activity (absorption 360 nm, PPi release assay)", "setting": "[1]; [8]", "result": "No adenylation activity"},
      {"measurement": "Formed PPi", "setting": "[2]; [9]", "result": 0, "unit": "mM/min/mM enzyme"},
      {"measurement": "Formed PPi", "setting": "[2]; [10]", "result": 0.04, "unit": "mM/min/mM enzyme"},
      {"measurement": "Formed PPi", "setting": "[2]; [11]", "result": 0, "unit": "mM/min/mM enzyme"},
      {"measurement": "Formed PPi", "setting": "[3]; substrate D-HPG 0.1 mM, co-purified with MbtH-like protein Tcp 13", "result": 0.08, "unit": "mM/min/mM enzyme"},
      {"measurement": "Formed PPi", "setting": "[3]; substrate D-HPG 0.1 mM, co-purified with MbtH-like protein Tcp 17", "result": 0.11, "unit": "mM/min/mM enzyme"},
      {"measurement": "Formed PPi", "setting": "[3]; substrate D-HPG 0.1 mM, co-purified with MbtH-like protein VMbtH", "result": 0, "unit": "mM/min/mM enzyme"},
      {"measurement": "Formed PPi", "setting": "[3]; substrate D-HPG 1 mM, co-purified with MbtH-like protein Tcp 13", "result": 0.66, "unit": "mM/min/mM enzyme"},
      {"measurement": "Formed PPi", "setting": "[3]; substrate D-HPG 1 mM, co-purified with MbtH-like protein Tcp 17", "result": 0.63, "unit": "mM/min/mM enzyme"},
      {"measurement": "Formed PPi", "setting": "[3]; substrate D-HPG 1 mM, co-purified with MbtH-like protein VMbtH", "result": 0.86, "unit": "mM/min/mM enzyme"},
      {"measurement": "adenylation activity (absorption 360 nm, PPi release assay)", "setting": "[3]; [7]", "result": "clear adenylation activity"},
      {"measurement": "adenylation activity (absorption 360 nm, PPi release assay)", "setting": "[3]; [8]", "result": "No adenylation activity"},
      {"measurement": "adenylation activity (absorption 360 nm, PPi release assay)", "setting": "[4]; [7]", "result": "no activity"},
      {"measurement": "adenylation activity (absorption 360 nm, PPi release assay)", "setting": "[4]; [8]", "result": "No adenylation activity"},
      {"measurement": "adenylation activity (absorption 360 nm, PPi release assay)", "setting": "[5]; [7]", "result": "no activity"},
      {"measurement": "adenylation activity (absorption 360 nm, PPi release assay)", "setting": "[5]; [8]", "result": "No adenylation activity"},
      {"measurement": "Formed PPi", "setting": "[6]; [9]", "result": 0.17, "unit": "mM/min/mM enzyme"},
      {"measurement": "Formed PPi", "setting": "[6]; [10]", "result": 0.23, "unit": "mM/min/mM enzyme"},
      {"measurement": "Formed PPi", "setting": "[6]; [11]", "result": 0.09, "unit": "mM/min/mM enzyme"}
    ]},
    {"substance": "ComB_M1_A: purified adenylation domain of ComB module M1 (SEQ ID NO: 9); Streptomyces lavendulae", "values": [
      {"measurement": "adenylation activity (PPi release assay)", "setting": "[1]; [12]", "result": "confirmed its activity"},
      {"measurement": "adenylation activity (PPi release assay)", "setting": "[1]; [13]", "result": "no adenylation activity"},
      {"measurement": "adenylation activity (absorption 360 nm, PPi release assay)", "setting": "[1]; [8]", "result": "No adenylation activity"},
      {"measurement": "adenylation activity (PPi release assay)", "setting": "[2]; substrate D-phenylglycine, co-purified with Tcp13, or Tcp17 or VMbtH", "result": "no adenylation activity"},
      {"measurement": "adenylation activity (PPi release assay)", "setting": "[3]; [12]", "result": "confirmed its activity"},
      {"measurement": "adenylation activity (PPi release assay)", "setting": "[3]; [13]", "result": "no adenylation activity"},
      {"measurement": "adenylation activity (absorption 360 nm, PPi release assay)", "setting": "[3]; [8]", "result": "No adenylation activity"},
      {"measurement": "adenylation activity (PPi release assay)", "setting": "[4]; [13]", "result": "no adenylation activity"},
      {"measurement": "adenylation activity (absorption 360 nm, PPi release assay)", "setting": "[4]; [8]", "result": "No adenylation activity"},
      {"measurement": "adenylation activity (PPi release assay)", "setting": "[5]; [13]", "result": "no adenylation activity"},
      {"measurement": "adenylation activity (absorption 360 nm, PPi release assay)", "setting": "[5]; [8]", "result": "No adenylation activity"},
      {"measurement": "adenylation activity (PPi release assay)", "setting": "[6]; substrate L-phenylglycine, co-purified with Tcp13, or Tcp17 or VMbtH", "result": "no adenylation activity"}
    ]}
  ]
}
